Several values for one entry are separate records, joined by “and”; a condition that tells them apart may be missing. Identical values can stand only once. One block for each compound: values may come before it.
Experiment: solvent given as SMILES

emission maximum (in ClCCl): 422 nm
SMILES: CC(C)(C)c1ccc2c(c1)c1cc(C(C)(C)C)ccc1n2-c1ccc(C#Cc2ccc3c4ccc(C#Cc5ccc(C=O)cc5)cc4n(-c4ccc(C(F)(F)F)cc4)c3c2)cc1

SMILES: CN(C)c1ccc(C2=Cc3ccc4ccccc4[n+]3[B-](F)(F)O2)cc1
emission maximum (in C1CCOC1): 540 nm
emission maximum (in C1COCCO1): 516 nm
emission maximum (in CC1CCCCC1): 478 nm
emission maximum (in CC#N): 573 nm
emission maximum (in CCOC(C)=O): 534 nm
emission maximum (in CCOCC): 509 nm
emission maximum (in CN(C)C=O): 581 nm
emission maximum (in CO): 564 nm
emission maximum (in COC(C)=O): 562 nm
emission maximum (in ClC(Cl)Cl): 521 nm

SMILES: COc1cc2c(cc1/C=C/C(=C(C#N)C#N)c1ccccc1)c1ccccc1n2C
emission maximum (in C1CCOC1): 568 nm
emission maximum (in CC#N): 589 nm
emission maximum (in CCO): 575 nm
emission maximum (in CCOC(C)=O): 549 nm and 548 nm
emission maximum (in CN(C)C=O): 573 nm
emission maximum (in CO): 575 nm
emission maximum (in CS(C)=O): 581 nm
emission maximum (in Cc1ccccc1): 566 nm
emission maximum (in ClC(Cl)Cl): 554 nm
emission maximum (in ClCCl): 560 nm

SMILES: CC[N+]1(CC)CN2C(=N1)C(C(=O)O)=Cc1cc(OC)c(OC)cc12
emission maximum (in O): 472 nm

emission maximum (in CCO): 460 nm
SMILES: COc1ccc(C(=O)COc2c(C)c(=O)n3c(=O)c(C)c(COC(=O)c4ccccc4Cl)n23)cc1

emission maximum (in ClC(Cl)Cl): 412 nm
SMILES: N#Cc1c(C#N)c2cc(Cl)c(Cl)cc2c2cc(Cl)c(Cl)cc12

SMILES: CCCCCCCCCCCCOc1ccc(C2=c3sc4ccccc4c3=[N+]3C2=Nc2c(-c4ccc(OCCCCCCCCCCCC)cc4)c4sc5ccccc5c4n2[B-]3(F)F)cc1
emission maximum (in C1CCOC1): 813 nm
emission maximum (in Cc1ccccc1): 804 nm
emission maximum (in ClC(Cl)Cl): 808 nm

emission maximum (in CCOC(C)=O): 478 nm
SMILES: Cn1ncc2c3c(C#N)c4c5ccccc5n(C)c4nc3ccc21

emission maximum (in ClCCl): 406 nm
SMILES: CCOc1cccc(-c2nc3c(c4c2-c2ccccc2CC4)-c2ccccc2CC3)c1O

emission maximum (in ClCCl): 608 nm
SMILES: CCCCCCC1(CCCCCC)c2cc(-c3ccc(-c4ccc(-c5ccc(-c6ccc7c(c6)C(CCCCCC)(CCCCCC)c6cc(-n8c9ccc(-n%10c%11ccccc%11c%11ccccc%11%10)cc9c9cc(-n%10c%11ccccc%11c%11ccccc%11%10)ccc98)ccc6-7)s5)c5nsnc45)s3)ccc2-c2ccc(-n3c4ccc(-n5c6ccccc6c6ccccc65)cc4c4cc(-n5c6ccccc6c6ccccc65)ccc43)cc21

SMILES: O=S(=O)(c1cccc(N2c3ccccc3Sc3ccccc32)c1)c1cccc(N2c3ccccc3Sc3ccccc32)c1
emission maximum (in C1CCOC1): 596 nm
emission maximum (in CCCCC(CC)n1c2ccc(-n3c4ccccc4c4ccccc43)cc2c2cc(-n3c4ccccc4c4ccccc43)ccc21): 554.57 nm
emission maximum (in Cc1ccccc1): 561 nm
emission maximum (in ClC(Cl)Cl): 579 nm
emission maximum (in c1cc(-n2c3ccccc3c3ccccc32)cc(-n2c3ccccc3c3ccccc32)c1): 550.83 nm

emission maximum (in ClCCl): 709 nm
SMILES: CC1=C(c2ccc(N(c3ccccc3)c3ccccc3)cc2)C(C)=[N+]2C1=C(c1c(-c3ccccn3)nc3ccccn13)c1c(C)c(-c3ccc(N(c4ccccc4)c4ccccc4)cc3)c(C)n1[B-]2(F)F

SMILES: CCCCCCCCc1ccc(-n2c3c(c4c2c2c(n4-c4ccc(CCCCCCCC)cc4)-c4ccccc4NB2c2ccccc2)B(c2ccccc2)Nc2ccccc2-3)cc1
emission maximum (in Cc1ccccc1): 400 nm

SMILES: N#CC1=c2c3cccc4c(Br)ccc(c43)n2[B-](F)(F)[n+]2ccccc21
emission maximum (in C1CCOC1): 545 nm
emission maximum (in CC#N): 541 nm
emission maximum (in CCCCCC): 545 nm
emission maximum (in Cc1ccccc1): 550 nm
emission maximum (in ClCCl): 546 nm

emission maximum (in ClCCl): 424 nm
SMILES: CN(C)c1ccc(N2c3sc4ccccc4c3Sc3sc4ccccc4c32)cc1

emission maximum (in C1CCOC1): 477 nm
SMILES: Oc1ccc(C2=N[N+]3=Cc4c(ccc5ccccc45)O[B-]3(c3ccc([B-]45OC(c6ccc(O)cc6)=N[N+]4=Cc4c(ccc6ccccc46)O5)cc3)O2)cc1 (configuration not stated)

emission maximum (in CC#N): 492 nm
emission maximum (in CCCCCC): 467 nm
emission maximum (in CO): 525 nm
emission maximum (in CS(C)=O): 504 nm
emission maximum (in ClC(Cl)Cl): 476 nm
SMILES: C/C(=N\Nc1ccc(C#N)cc1)c1cccc(/C(C)=N/Nc2ccc(C#N)cc2)c1

emission maximum (in ClCCl): 592 nm
SMILES: COc1ccc(C2=C(C)C3=C(c4c(-c5ccccn5)nc5ccccn45)c4c(C)cc(C)n4[B-](F)(F)[N+]3=C2C)cc1

SMILES: CN(C)c1ccc(C2=Nc3scc[n+]3[B-](F)(F)O2)cc1
emission maximum (in C1CCOC1): 454 nm
emission maximum (in CC#N): 469 nm
emission maximum (in Cc1ccccc1): 439 nm
emission maximum (in ClCCl): 453 nm

emission maximum (in ClCCl): 465 nm
SMILES: CC(C)(C)c1ccc2c(c1)c1cc(C(C)(C)C)ccc1n2-c1ccc(N(c2ccc(-c3ccc(-c4ccc(N(c5ccc(-n6c7ccc(C(C)(C)C)cc7c7cc(C(C)(C)C)ccc76)cc5)c5ccc(-n6c7ccc(C(C)(C)C)cc7c7cc(C(C)(C)C)ccc76)cc5)cc4)s3)cc2)c2ccc(-n3c4ccc(C(C)(C)C)cc4c4cc(C(C)(C)C)ccc43)cc2)cc1

emission maximum (in CCO): 539 nm
SMILES: CCOC(=O)c1cc(C(=O)OCC)c2cc(NC)ccc2n1

emission maximum (in C1CCOC1): 608 nm
SMILES: F[B-]1(F)n2c(c(-c3ccccc3)c(-c3ccccc3)c2-c2ccccc2)C=C2C(c3ccccc3)=C(c3ccccc3)C(c3ccccc3)=[N+]21

emission maximum (in CC#N): 478 nm
emission maximum (in O): 521 nm
SMILES: Nc1nc2ccccc2[n+]([O-])n1

emission maximum (in ClCCl): 457 nm
SMILES: N#Cc1ccc(-c2cnc3cccc(-c4ccccc4)n23)cc1

SMILES: Cc1ccc(N(c2ccc(C)cc2)c2ccc(-c3cc4c(cc(-c5ccc(N(c6ccc(C)cc6)c6ccc(C)cc6)cc5)c5nsnc54)c4nsnc34)cc2)cc1
emission maximum (in Cc1ccccc1): 659 nm
emission maximum (in ClCCl): 683 nm

emission maximum (in O): 562 nm
SMILES: CN1/C(=C/C=C/C2=[N+](CCCCCC(=O)O)c3ccc(S(=O)(=O)[O-])cc3C2(C)C)C(C)(C)c2cc(S(=O)(=O)[O-])ccc21

emission maximum (in ClC(Cl)Cl): 415 nm
SMILES: CCCCn1c2ccc(-c3ccc(OC)cc3)cc2c2ccc3c4cc(-c5ccc(OC)cc5)ccc4n(CCCC)c3c21

SMILES: Cc1ccc2ccccc2c1
emission maximum (in C1CCCCC1): 338.75 nm

SMILES: CN(C)c1ccc(/C=C/C=C/c2nc3ccccc3o2)cc1
emission maximum (in C1COCCO1): 508 nm
emission maximum (in CC#N): 535 nm
emission maximum (in CC(C)=O): 531 nm
emission maximum (in CCCCCC): 474 nm
emission maximum (in CCCCO): 525 nm
emission maximum (in CCCO): 526 nm
emission maximum (in CCO): 531 nm
emission maximum (in CN(C)C=O): 538 nm
emission maximum (in CO): 539 nm
emission maximum (in Cc1ccccc1): 496 nm
emission maximum (in ClC(Cl)(Cl)Cl): 491 nm
emission maximum (in ClC(Cl)Cl): 517 nm
emission maximum (in ClCCl): 525 nm
emission maximum (in OCC(O)CO): 566 nm
emission maximum (in OCCO): 562 nm
emission maximum (in c1ccccc1): 503 nm

emission maximum (in CCO): 510 nm
emission maximum (in ClCCl): 492 nm
SMILES: N#Cc1cnc(-c2c3ccccc3cc3ccccc23)nc1

emission maximum (in CS(C)=O): 572 nm
emission maximum (in ClCCl): 540 nm
SMILES: CCN(CC)c1ccc2c(c1)oc(=O)c1c(=O)oc3cc(Br)ccc3c12

emission maximum (in ClCCl): 654 nm
SMILES: COc1ccc2cc(C(C)C(=O)Oc3ccc(-c4c5nc(c(-c6ccc(C)cc6)c6ccc([nH]6)c(-c6ccc(C)cc6)c6nc(c(-c7ccc(C)cc7)c7ccc4[nH]7)C=C6)C=C5)cc3)ccc2c1 (configuration not stated)

SMILES: CN(C)c1ccc(-c2cc3ccc([N+](=O)[O-])cc3c(=O)o2)cc1
emission maximum (in CC(C)=O): 682 nm
emission maximum (in CCCCO): 559 nm
emission maximum (in CCOC(C)=O): 621 nm
emission maximum (in CN(C)C=O): 605 nm
emission maximum (in CO): 605 nm
emission maximum (in ClC(Cl)Cl): 652 nm

SMILES: c1ccc(-c2nc(-c3ccccc3)nc(-c3ccc(N4c5ccccc5C5(c6ccccc64)c4ccccc4C4(c6ccccc6Sc6ccccc64)c4ccccc45)cc3)n2)cc1
emission maximum (in Cc1ccccc1): 468.93 nm

emission maximum (in ClCCl): 451 nm
SMILES: CCOC(=O)c1c(C(=O)OC)c(-c2cc3cc(OC)ccc3oc2=O)nn1-c1ccccc1

emission maximum (in ClC(Cl)Cl): 644 nm
SMILES: F[B-]1(F)n2cccc2C(c2ccccc2)=C2C=CC(c3cccc(OC4=[N+]5C(=C(c6ccccc6)c6cc(Br)c(-c7ccc[nH]7)n6[B-]5(F)F)C=C4Br)c3)=[N+]21

emission maximum (in ClCCl): 463 nm
SMILES: c1ccc2c(c1)OP1(=NP3(=NP(Oc4ccc5ccc6cccc7ccc4c5c67)(Oc4ccc5ccc6cccc7ccc4c5c67)=N1)Oc1ccccc1-c1ccccc1O3)Oc1ccccc1-2

SMILES: COCCC1=Cc2nc1ccc1[nH]c(cc1CCOC)c1nc(ccc3[nH]c2cc3CCOC)C(CCOC)=C1
emission maximum (in Cc1ccccc1): 642 nm

emission maximum (in ClCCl): 430 nm
SMILES: N#Cc1ccc(-n2c(-c3ccc(-c4ccc(-c5nc6c7ccccc7c7ccccc7c6n5-c5ccc(C#N)c6ccccc56)cc4)cc3)nc3c4ccccc4c4ccccc4c32)c2ccccc12

emission maximum (in C1CCCCC1): 399.14 nm
emission maximum (in CC#N): 404.15 nm
emission maximum (in ClCCl): 405.52 nm
SMILES: c1ccc2c(-c3ccc4sc5ccccc5c4c3)c3ccccc3cc2c1

emission maximum (in ClCCl): 455 nm
SMILES: Cc1ccccc1-c1c2cccc3c(-c4ccc(C(C)(C)C)cc4)cc4c(-c5ccccc5C)c5cccc6c(-c7ccc(C(C)(C)C)cc7)cc1c(c65)c4c32

emission maximum (in ClCCl): 448 nm
SMILES: CCOC(=O)c1sc(-c2ccc(-c3cc(C4CC4)c(C(=O)OCC)s3)s2)cc1C1CC1

emission maximum (in ClC(Cl)Cl): 613 nm
SMILES: COc1ccc(-c2oc3cccc4c5c(-c6ccc(OC)c(OC)c6)/c(=N/S(=O)(=O)C(F)(F)F)oc6cccc(c2c34)c65)cc1OC

emission maximum (in CO): 622 nm
emission maximum (in ClC(Cl)Cl): 623 nm
SMILES: Cc1nc2c(ccc3c2sc(/C=C/c2cc4c5c(c2)CCCN5CCC4)[n+]3C)s1

SMILES: c1ccc(-c2nc(-c3ccc(-n4c5ccc(-n6c7ccccc7c7ccccc76)cc5c5ccc6c(c7ccccc7n6-c6ccccc6)c54)cc3)c3sc4ccccc4c3n2)cc1
emission maximum (in Cc1ccccc1): 460.56 nm

SMILES: CCCCCCCCCCCCCCCCCCN1C(=O)c2cccc3c(OCCN(C)C)ccc(c23)C1=O
emission maximum (in CC#N): 514 nm
emission maximum (in CC(C)=O): 507 nm
emission maximum (in CCO): 510 nm
emission maximum (in CCOC(C)=O): 497 nm
emission maximum (in CCOCC): 492 nm
emission maximum (in CN(C)C=O): 516 nm
emission maximum (in ClCCl): 502 nm

emission maximum (in O): 606 nm
SMILES: CC[n+]1c(-c2ccccc2)c2cc(N)ccc2c2ccc(N)cc21

emission maximum (in ClC(Cl)Cl): 660 nm
SMILES: CCCCCCCCCCCCCCCCCCOc1ccc(C#Cc2cc3nc4c(OCCCCCCCCCCCC)cc5c6cc(OCCCCCCCCCCCC)c(OCCCCCCCCCCCC)cc6c6cc(OCCCCCCCCCCCC)c(OCCCCCCCCCCCC)cc6c5c4nc3cc2C#Cc2ccc(OCCCCCCCCCCCCCCCCCC)cc2)cc1

SMILES: c1cc(-n2c3ccccc3c3ccccc32)c(-c2nc3ccccn3n2)c(-n2c3ccccc3c3ccccc32)c1
emission maximum (in Cc1ccccc1): 397 nm
